Assay results published in ChEMBL document CHEMBL4418299, “Compounds useful as csf1 modulators” (2016).

Molecular target: Macrophage colony-stimulating factor 1 receptor (Homo sapiens, UniProt P07333)
Experiment: Displacement of kinase tracer 236 from recombinant human His-tagged CSF1R cytoplasmic domain (538 to 910 residues) expressed in baculovirus-infected insect cells measured after 5 hrs by TR-FRET based LanthaScreen assay

Macrophage colony-stimulating factor 1 receptor, sequence (P07333 whole entry, the tested form may be a part): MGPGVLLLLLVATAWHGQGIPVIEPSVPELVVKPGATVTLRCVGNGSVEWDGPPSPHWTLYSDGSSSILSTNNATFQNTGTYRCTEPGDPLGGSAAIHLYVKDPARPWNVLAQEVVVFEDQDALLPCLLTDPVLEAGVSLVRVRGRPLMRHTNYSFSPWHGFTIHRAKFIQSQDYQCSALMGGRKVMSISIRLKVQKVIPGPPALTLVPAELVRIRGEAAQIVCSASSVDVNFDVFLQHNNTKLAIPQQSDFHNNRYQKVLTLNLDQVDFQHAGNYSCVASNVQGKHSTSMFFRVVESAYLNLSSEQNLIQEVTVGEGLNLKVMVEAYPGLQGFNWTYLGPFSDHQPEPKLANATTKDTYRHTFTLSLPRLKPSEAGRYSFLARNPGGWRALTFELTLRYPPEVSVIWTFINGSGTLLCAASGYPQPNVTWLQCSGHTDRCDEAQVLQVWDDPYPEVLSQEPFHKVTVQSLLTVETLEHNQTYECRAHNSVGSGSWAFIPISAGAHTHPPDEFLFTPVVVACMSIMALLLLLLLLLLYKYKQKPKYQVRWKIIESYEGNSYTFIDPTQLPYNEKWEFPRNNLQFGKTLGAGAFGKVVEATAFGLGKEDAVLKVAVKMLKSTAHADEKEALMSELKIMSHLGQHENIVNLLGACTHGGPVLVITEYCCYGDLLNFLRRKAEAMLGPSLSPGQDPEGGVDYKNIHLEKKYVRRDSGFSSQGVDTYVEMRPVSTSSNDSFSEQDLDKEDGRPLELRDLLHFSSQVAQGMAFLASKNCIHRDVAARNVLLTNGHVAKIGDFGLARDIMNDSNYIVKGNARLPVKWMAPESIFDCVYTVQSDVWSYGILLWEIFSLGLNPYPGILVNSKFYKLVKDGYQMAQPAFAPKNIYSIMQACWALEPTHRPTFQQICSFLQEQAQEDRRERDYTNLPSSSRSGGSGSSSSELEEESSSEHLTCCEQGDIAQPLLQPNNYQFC

| SMILES | IC50 |
| --- | --- |
| COc1cc(-n2c3c(c4ncnc(N)c42)COC3)ccc1NC(=O)Cc1csc(C(C)(C)C)n1 | 10 to 200 nM |
| COc1cc(-n2c3c(c4ncnc(N)c42)CCC3)ccc1NC(=O)CN1C(=O)COc2ccccc21 | 10 to 200 nM |
| COc1cc(-n2c3c(c4ncnc(N)c42)COC3)ccc1NC(=O)Cn1cnc(C(F)(F)F)c1 | 10 to 200 nM |
| Cn1cc(C(=O)Nc2ccc(-n3c4c(c5ncnc(N)c53)CCC4)cc2)c2ccccc21 | 10 to 200 nM |
| COc1cc(-n2c3c(c4ncnc(N)c42)CCC3)ccc1NC(=O)Cc1nc(C(C)C)no1 | < 10 nM |
| COc1cc(-n2c3c(c4ncnc(N)c42)CCC3)ccc1NC(=O)Cc1coc(-c2ccccc2)n1 | 10 to 200 nM |
| CC(C)(C)c1ccn(CC(=O)Nc2ccc(-n3c4c(c5ncnc(N)c53)COC4)cc2)n1 | 10 to 200 nM |
| COc1ccccc1CC(=O)Nc1ccc(-n2c3c(c4ncnc(N)c42)CCC3)cc1 | < 10 nM |
| Nc1ncnc2c3c(n(-c4ccc(NC(=O)Cc5cc(C(F)(F)F)on5)cc4)c12)CCC3 | < 10 nM |
| COc1cc(-n2c3c(c4ncnc(N)c42)CCC3)ccc1NC(=O)Cn1nc(C)cc1C | 10 to 200 nM |
| COc1cc(-n2c3c(c4ncnc(N)c42)CCC3)ccc1CC(=O)Nc1ccccc1 | 10 to 200 nM |
| Nc1ncnc2c3c(n(-c4ccc(NC(=O)Cc5ccccc5)c(Cl)c4)c12)CCC3 | > 200 nM |
| CC(C)(C)c1cnn(CC(=O)Nc2ccc(-n3c4c(c5ncnc(N)c53)CCC4)cc2)c1 | < 10 nM |
| COc1cc(-n2c3c(c4ncnc(N)c42)COC3)ccc1NC(=O)Cc1ccc(C)c(F)c1 | < 10 nM |
| COc1cc(-n2c3c(c4ncnc(N)c42)CCC3)ccc1NC(=O)Cc1coc(C(C)C)n1 | < 10 nM |
| COc1cc(-n2c3c(c4ncnc(N)c42)CCC3)ccc1NC(=O)Cc1ccn(C)n1 | > 200 nM |
| COc1cc(-n2c3c(c4ncnc(N)c42)CCC3)ccc1NC(=O)Cc1cnn(C)c1C(F)(F)F | < 10 nM |
| COc1cc(-n2c3c(c4ncnc(N)c42)CCC3)ccc1NC(=O)Cc1ccc2c(ccn2C)c1 | < 10 nM |
| COc1cc(-n2c3c(c4ncnc(N)c42)CCC3)ccc1NC(=O)Cc1ccccc1 | 10 to 200 nM |

| SMILES | IC50 |
| --- | --- |
| COc1cc(NC(=O)Cc2ccc(-n3c4c(c5ncnc(N)c53)CCC4)cc2OC)cc(C(F)(F)F)c1 | < 10 nM |
| COc1ccc(CC(=O)Nc2ccc(-n3c4c(c5ncnc(N)c53)COC4)cc2OC)cc1F | 10 to 200 nM |
| COc1cc(-n2c3c(c4ncnc(N)c42)CCC3)ccc1CC(=O)Nc1ccnn1C | > 200 nM |
| Nc1ncnc2c3c(n(-c4ccc(NC(=O)Cn5cnc(C(F)(F)F)c5)cc4)c12)COC3 | < 10 nM |
| Cn1nc(C(F)(F)F)cc1CC(=O)Nc1ccc(-n2c3c(c4ncnc(N)c42)CCC3)cc1 | < 10 nM |
| COc1cc(-n2c3c(c4ncnc(N)c42)CCC3)ccc1NC(=O)Cc1ccc(C(C)(C)C)cc1 | 10 to 200 nM |
| COc1cc(-n2c3c(c4ncnc(N)c42)COC3)ccc1NC(=O)Cc1csc(C(C)C)n1 | 10 to 200 nM |
| COc1cc(-n2c3c(c4ncnc(N)c42)COC3)ccc1NC(=O)Cn1ccc(C(F)(F)F)n1 | 10 to 200 nM |
| COc1cc(-n2c3c(c4ncnc(N)c42)CCC3)ccc1CC(=O)N1CCOc2ccccc21 | < 10 nM |
| Nc1ncnc2c3c(n(-c4ccc(NC(=O)Cc5cc(C(F)(F)F)ccc5F)c(C(F)(F)F)c4)c12)CCC3 | > 200 nM |
| CNC(=O)c1cccc(NC(=O)Cc2ccc(-n3c4c(c5ncnc(N)c53)CCC4)cc2OC)c1 | 10 to 200 nM |
| Nc1ncnc2c3c(n(-c4ccc(NC(=O)Cc5ccc(C(F)(F)F)nn5)cc4)c12)COC3 | 10 to 200 nM |
| COc1cc(-n2c3c(c4ncnc(N)c42)COC3)ccc1NC(=O)Cc1cnn(C)c1C(F)(F)F | > 200 nM |
| COc1cc(-n2c3c(c4ncnc(N)c42)CCC3)ccc1CC(=O)Nc1ccc(C(F)(F)F)cn1 | < 10 nM |
| COc1cc(-n2c3c(c4ncnc(N)c42)COC3)ccc1NC(=O)Cc1ccnc(C(F)(F)F)c1 | 50 nM |
| COc1cc(-n2c3c(c4ncnc(N)c42)COC3)ccc1NC(=O)CN1C(=O)COc2ccccc21 | > 200 nM |
| COc1cc(-n2c3c(c4ncnc(N)c42)COC3)ccc1NC(=O)Cc1ccnc(C(F)(F)F)n1 | > 200 nM |
| Nc1ncnc2c3c(n(-c4ccc(NC(=O)Cc5nnc(C(F)(F)F)o5)cc4)c12)CCC3 | > 200 nM |
| COc1cc(-n2c3c(c4ncnc(N)c42)CCC3)ccc1NC(=O)Cc1cnn(C(F)F)c1 | < 10 nM |

| SMILES | IC50 |
| --- | --- |
| COc1cc(-n2c3c(c4ncnc(N)c42)CCC3)ccc1NC(=O)CN1CCCc2cc(F)ccc21 | 10 to 200 nM |
| COc1cc(-n2c3c(c4ncnc(N)c42)CCC3)ccc1NC(=O)Cc1ccnc(C(F)(F)F)n1 | 10 to 200 nM |
| COc1cc(-n2c3c(c4ncnc(N)c42)CCC3)ccc1NC(=O)Cc1nnn(C(C)(C)C)n1 | < 10 nM |
| COc1cc(-n2c3c(c4ncnc(N)c42)CCC3)ccc1NC(=O)Cn1nc(C)cc1C(F)(F)F | 10 to 200 nM |
| Nc1ncnc2c3c(n(-c4ccc(NC(=O)Cc5ccc6c(c5)OCO6)cc4)c12)CCC3 | 10 to 200 nM |
| COc1ccc(NC(=O)Cc2ccc(-n3c4c(c5ncnc(N)c53)CCC4)cc2OC)nn1 | < 10 nM |
| COc1cc(-n2c3c(c4ncnc(N)c42)CCC3)ccc1NC(=O)Cc1ccc(C)c(F)c1 | < 10 nM |
| COc1cc(-n2c3c(c4ncnc(N)c42)COC3)ccc1NC(=O)Cc1ccc(C(F)(F)F)nc1 | 10 to 200 nM |
| COc1ccc(CC(=O)Nc2ccc(-n3c4c(c5ncnc(N)c53)COC4)cc2OC)c(F)c1 | 10 to 200 nM |
| COc1cc(-n2c3c(c4ncnc(N)c42)COC3)ccc1NC(=O)Cn1ccc(C(C)(C)C)n1 | 10 to 200 nM |
| N#Cc1ccc(CC(=O)Nc2ccc(-n3c4c(c5ncnc(N)c53)CCC4)cc2)cc1 | < 10 nM |
| COc1ccc(CC(=O)Nc2ccc(-n3c4c(c5ncnc(N)c53)COC4)cc2)cc1F | 14 nM |
| Nc1ncnc2c3c(n(-c4ccc(NC(=O)Cn5ccc(C(F)(F)F)n5)cc4)c12)CCC3 | < 10 nM |
| COc1cc(-n2c3c(c4ncnc(N)c42)CCC3)ccc1NC(=O)Cc1ccc(C)cc1F | < 10 nM |
| COc1cccc(CC(=O)Nc2ccc(-n3c4c(c5ncnc(N)c53)CCC4)cc2OC)n1 | 10 to 200 nM |
| COc1cc(-n2c3c(c4ncnc(N)c42)CCC3)ccc1NC(=O)Cc1cnn(C)c1 | 10 to 200 nM |
| Nc1ncnc2c3c(n(-c4ccc(NC(=O)Cc5ccc(Cl)nn5)cc4)c12)COC3 | > 200 nM |
| COc1cc(-n2c3c(c4ncnc(N)c42)COC3)ccc1NC(=O)Cc1ccccc1 | < 10 nM |

The next lines start with the values.

| IC50 | SMILES |
| --- | --- |
| < 10 nM | COc1cc(-n2c3c(c4ncnc(N)c42)CCC3)ccc1CC(=O)Nc1ccc(C(C)(C)C)cc1 |
| < 10 nM | Nc1ncnc2c3c(n(-c4ccc(NC(=O)Cn5cc(C(F)(F)F)cn5)cc4)c12)CCC3 |
| < 10 nM | COc1cc(-n2c3c(c4ncnc(N)c42)CCC3)ccc1NC(=O)Cc1ccc(C(F)(F)F)nc1 |
| < 10 nM | COc1cc(-n2c3c(c4ncnc(N)c42)CCC3)ccc1NC(=O)Cn1ccc(C(C)(C)C)n1 |
| < 10 nM | COc1cc(-n2c3c(c4ncnc(N)c42)CCC3)ccc1CC(=O)Nc1ccc2c(c1)COC2(C)C |
| 10 to 200 nM | CC(C)c1noc(CC(=O)Nc2ccc(-n3c4c(c5ncnc(N)c53)CCC4)cc2)n1 |
| 10 to 200 nM | COc1cc(-n2c3c(c4ncnc(N)c42)COC3)ccc1NC(=O)Cn1cc(C(F)(F)F)cn1 |
| > 200 nM | COc1cc(-n2c3c(c4ncnc(N)c42)CCC3)ccc1NC(=O)Cc1nnccc1C(F)(F)F |
| < 10 nM | COc1cc(-n2c3c(c4ncnc(N)c42)CCC3)ccc1NC(=O)Cc1cc(C(F)F)on1 |
| < 10 nM | COc1cc(-n2c3c(c4ncnc(N)c42)COC3)ccc1NC(=O)Cc1ccc(C)cc1F |
| > 200 nM | Nc1ncnc2c3c(n(-c4ccc(NC(=O)[C@@H](N)Cc5ccccc5)cc4)c12)CCC3 |
| < 10 nM | CC(C)c1ccn(CC(=O)Nc2ccc(-n3c4c(c5ncnc(N)c53)CCC4)cc2)n1 |
| < 10 nM | COc1cc(CC(=O)Nc2ccc(-n3c4c(c5ncnc(N)c53)CCC4)cc2OC)cc(OC)c1 |
| < 10 nM | COc1cc(-n2c3c(c4ncnc(N)c42)CCC3)ccc1NC(=O)Cc1cc(C(F)(F)F)on1 |
| 10 to 200 nM | COc1ccc(CC(=O)Nc2ccc(-n3c4c(c5ncnc(N)c53)COC4)cc2)c(F)c1 |
| 10 to 200 nM | COc1ccc(CC(=O)Nc2ccc(-n3c4c(c5ncnc(N)c53)COC4)cc2OC)cn1 |
| < 10 nM | COc1cc(-n2c3c(c4ncnc(N)c42)COC3)ccc1NC(=O)Cn1ccc(C(C)C)n1 |
| < 10 nM | COc1cc(-n2c3c(c4ncnc(N)c42)CCC3)ccc1NC(=O)Cn1cc(C)cn1 |

| IC50 | SMILES |
| --- | --- |
| 10 to 200 nM | CN(C)c1cc(CC(=O)Nc2ccc(-n3c4c(c5ncnc(N)c53)CCC4)cc2)ccc1C(F)(F)F |
| 10 to 200 nM | NC(=O)c1ccc(CC(=O)Nc2ccc(-n3c4c(c5ncnc(N)c53)CCC4)cc2)cc1C(F)(F)F |
| < 10 nM | COc1cc(-n2c3c(c4ncnc(N)c42)CCC3)ccc1NC(=O)Cc1cnc2c(ccn2C)c1 |
| < 10 nM | COc1cc(-n2c3c(c4ncnc(N)c42)CCC3)ccc1NC(=O)Cc1ccn(C(F)F)n1 |
| 10 to 200 nM | COc1cc(-n2c3c(c4ncnc(N)c42)CCC3)ccc1NC(=O)Cc1cc(C)no1 |
| 10 to 200 nM | Nc1ncnc2c3c(n(-c4ccc(NC(=O)Cc5ccc(C(F)(F)F)nc5)cc4)c12)COC3 |
| 10 to 200 nM | COc1cc(-n2c3c(c4ncnc(N)c42)CCC3)ccc1CC(=O)Nc1ccc(C(C)(C)O)cn1 |
| < 10 nM | CC(C)(C)c1cnn(CC(=O)Nc2ccc(-n3c4c(c5ncnc(N)c53)COC4)cc2)c1 |
| 10 to 200 nM | COc1cc(-n2c3c(c4ncnc(N)c42)CCC3)ccc1NC(=O)Cc1nccc(C(F)(F)F)n1 |
| 10 to 200 nM | Cn1cc(CC(=O)Nc2ccc(-n3c4c(c5ncnc(N)c53)CCC4)cc2)cn1 |
| 10 to 200 nM | Nc1ncnc2c3c(n(-c4ccc(CC(=O)NC5CCCCC5)cc4)c12)CCC3 |
| < 10 nM | COc1cc(-n2c3c(c4ncnc(N)c42)CCC3)ccc1NC(=O)Cn1ccc(C2CC2)n1 |
| > 200 nM | Cc1ccc(F)c(CC(=O)Nc2ccc(-n3c4c(c5ncnc(N)c53)COC4)cc2F)c1 |
| 10 to 200 nM | Nc1ncnc2c3c(n(-c4ccc(NC(=O)Cc5cccnc5)cc4)c12)CCC3 |
| < 10 nM | Nc1ncnc2c3c(n(-c4ccc(NC(=O)Cn5cnc(C(F)(F)F)c5)cc4)c12)CCC3 |
| 10 to 200 nM | Nc1ncnc2c3c(n(-c4ccc(NC(=O)Cc5cc(C(F)(F)F)ccc5Cl)cc4)c12)CCC3 |
| < 10 nM | COc1cc(-n2c3c(c4ncnc(N)c42)CCC3)ccc1CC(=O)Nc1ccc(C(C)(C)OC)nc1 |
